Measured values: paper PMC9918889, “Alkaloids and Styryl lactones from Goniothalamus ridleyi King and Their α-Glucosidase Inhibitory Activity” (Molecules, 2023)
≈ marks a conversion by molar mass, not a printed value.

Experiments:
α-glucosidase = assay: colorimetric α-glucosidase inhibitory assay; assay type: biochemical; conditions: for %Inhibition at 250 µg/mL: sample at 250 µg/mL; for IC50: substrate p-nitrophenyl α-D-glucoside, 37 °C
Procedure: The previously reported approach was used to perform a colorimetric α-glucosidase assay. Briefly, the tested samples (50 µL) were combined with 50 µL of the α-glucosidase enzyme solution (0.05 U/mL) and preincubated at 37 °C for 5 min. The substrate (50 µL, c 1 mM), p-nitrophenyl α-D-glucoside, was added and incubated at 37 °C for 30 min. Then, 50 µL of Na2CO3 (0.3 M) was added. The absorption of the mixture was measured at 405 nm.

Plasmodium falciparum = system: Plasmodium falciparum; parameters: method as in PMID 19573585; conditions: cited from earlier work
HCT116 = system: HCT116; parameters: method as in PMID 31918304; conditions: colon cancer cell line HCT116; read-out: IC50, cytotoxicity against HCT116; cited from earlier work

Molecule	%Inhibition at 250 µg/mL (α-glucosidase)	further results
O=C1C=CC(=CC=Cc2ccccc2)O1 [Compound 7, 5-(3-phenyl-2-propenylidene)-2(5H)-furanone]	98.6%	IC50 (α-glucosidase): 1.25 ± 0.4 µM
C[C@@H]1C2=C(NC(=O)[C@@H]1O)C(=O)c1ccccc1C2=O [Compound 4, griffithazanone A]	98.0%	
C[C@H]1O[C@H](O[C@H]2[C@H](O)[C@@H](O)[C@@H](O[C@H]3[C@H](O)[C@@H](O)C(O)O[C@@H]3CO)O[C@@H]2CO)[C@H](O)[C@@H](O)[C@@H]1N[C@H]1C=C(CO)[C@@H](O)[C@H](O)[C@H]1O (stereo partly shown) [Acarbose, reference compound]	88.1%	
Cn1cc(C(=O)O)c2c1C(=O)c1ccccc1C2=O [Compound 3, goniochelienic acid B]	99.5%	
(−)-nordicentrine		IC50, antiplasmodial activity (Plasmodium falciparum): 0.3 µg/mL
O=C1C=CCC(/C=C\c2ccccc2)O1 (stereo not shown) [(Z)-6-styryl-5,6-dihydro-2-pyranone]		IC50 (HCT116): 22.2 µM
O=C1C=C[C@@H](O)[C@@H](/C=C/c2ccccc2)O1 [Compound 9, (−)-5-hydroxygoniothalamin]	99.8%	
CC(=O)O[C@H]1[C@H]2OC(=O)C=C[C@@H]2O[C@H]1c1ccccc1 [(+)-3-Acetylaltholactone]		IC50, antiplasmodial activity (Plasmodium falciparum): 2.6 µg/mL (≈ 9.48 µM)
Cn1cc(CO)c2c1C(=O)c1ccccc1C2=O [Compound 2, 3-hydroxymethyl-1-methyl-1H-benz[f]indole-4,9-dione]	99.3%	
COc1cccc2c1cc1c3c(cc4c(c32)OC2Oc3c(cc5c6c(cc7ccccc7c36)NC5=O)OC2O4)C(=O)N1 (stereo not shown) [Compound 1, Gonioridleylactam]	99.6%	IC50 (α-glucosidase): 138.9 ± 0.9 µM; melting point: 296 to 298 °C
